In patent publication US20230416271A1, “HETEROARYLQUINAZOLINE COMPOUNDS AS PROTEIN KINASE INHIBITORS” (CHENGDU CYNOGEN BIO-PHARMACEUTICAL TECHNOLOGY CO., LTD., priority 2020, published 2023) one finds IC50 data, which are given here for 25 compounds.

Some results are limits rather than exact numbers.

Holding throughout (format): biochemical
One assay addresses CDK4/cyclin D3 (Homo sapiens (Human), UniProt P11802). Kind of assay: Kinase activity assay (Caliper Mobility Shift Assay), CDK4/cyclin D3. The conditions noted are these: 10 nM kinase, 250 uM ATP. As to the method: (§1) The inhibitory effect of compounds against the kinase CDK4/cyclin D3 was detected by Caliper Mobility Shift Assay method. The final concentration of the compounds to be tested was set at 10 concentrations starting from 1 uM by 3-fold serial dilution. 5 μL of compounds at 5-fold final concentration and 10 μL of CDK4/cyclin D3 kinase solution at a final concentration of 10 nM was added to a 384-well reaction plate, respectively. The plate was pre-incubated for 10 min at room temperature (with negative control wells containing 10 uL of kinase buffer and 5 uL of 5% DMSO; positive control wells containing 10 μL of kinase solution and 5 uL of 5% DMSO). The reaction was initiated by adding 10 μL of ATP at a final concentration of 250 uM and the corresponding substrate peptide mixture at room temperature for 150 minutes. 30 uL of stop detection solution containing EDTA was added to stop the kinase reaction. Caliper EZ Reader was used to read the conversion rate. Conversion inhibition rate %=(average conversion rate of positive control %−conversion rate of sample %)/(average conversion rate of positive control %−average conversion rate of negative control %). wherein: negative control wells represent the conversion rate readings of wells without enzymatic activity; positive control wells represent conversion readings for wells with no compound inhibition. The log(inhibitor) vs. response—Variable slope of the analysis software GraphPad Prism 5 was used with log concentration value as the X-axis and the percent inhibition rate as the Y-axis to fit the dose-response curve, the IC50 value of each compound on the enzyme activity was thus obtained. Calculation formula: Y=Bottom+(Top−Bottom)/(1+10^((Log IC50−X)*HillSlope)).

A further assay concerns the target CDK2/Cyclin A2 (Homo sapiens (Human), UniProt P24941). Kind of assay: Kinase activity assay (Caliper Mobility Shift Assay), CDK2/Cyclin A2. On the procedure:
as §1
(§2) The IC50 values and inhibitory activities of compounds of the present disclosure on CDK6/Cyclin D3, CDK2/Cyclin A2, and CDK9/cyclin T1 were tested in a similar manner.

The target in a further assay is CDK6/Cyclin D3 (Homo sapiens (Human), UniProt Q00534). Description: Kinase activity assay (Caliper Mobility Shift Assay), CDK6/Cyclin D3. As to the method: as §1, §2
Sequence of CDK6/Cyclin D3 (Q00534 whole entry, species assumed): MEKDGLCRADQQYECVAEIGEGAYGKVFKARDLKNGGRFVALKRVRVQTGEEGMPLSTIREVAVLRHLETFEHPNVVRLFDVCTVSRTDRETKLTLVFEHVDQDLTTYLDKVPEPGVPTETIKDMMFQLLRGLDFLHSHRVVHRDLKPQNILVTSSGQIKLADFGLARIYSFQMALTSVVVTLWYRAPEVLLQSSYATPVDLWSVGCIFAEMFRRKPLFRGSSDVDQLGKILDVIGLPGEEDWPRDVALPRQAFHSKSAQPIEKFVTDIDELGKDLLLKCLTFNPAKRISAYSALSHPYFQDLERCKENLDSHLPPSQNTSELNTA
Sequence of CDK6/Cyclin D3 (P30281 whole entry partner, species assumed): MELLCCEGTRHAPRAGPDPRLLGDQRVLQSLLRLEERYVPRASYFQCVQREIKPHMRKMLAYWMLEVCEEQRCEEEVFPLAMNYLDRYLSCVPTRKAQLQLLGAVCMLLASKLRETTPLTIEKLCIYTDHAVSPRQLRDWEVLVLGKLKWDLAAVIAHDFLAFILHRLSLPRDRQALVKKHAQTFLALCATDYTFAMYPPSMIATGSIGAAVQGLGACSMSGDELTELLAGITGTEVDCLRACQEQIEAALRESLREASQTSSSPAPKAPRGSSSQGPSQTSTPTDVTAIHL

Sequence of CDK4/cyclin D3 (P11802 whole entry, species assumed): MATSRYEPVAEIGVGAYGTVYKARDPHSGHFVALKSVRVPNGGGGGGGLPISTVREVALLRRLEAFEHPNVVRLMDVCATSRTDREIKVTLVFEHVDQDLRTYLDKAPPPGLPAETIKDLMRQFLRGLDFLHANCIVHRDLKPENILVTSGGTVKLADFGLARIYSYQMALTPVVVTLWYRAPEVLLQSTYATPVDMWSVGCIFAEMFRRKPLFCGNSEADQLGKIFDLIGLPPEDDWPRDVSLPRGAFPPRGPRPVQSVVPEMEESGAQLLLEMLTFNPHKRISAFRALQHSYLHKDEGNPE
Sequence of CDK4/cyclin D3 (P30281 whole entry partner, species assumed): as the sequence (P30281 whole entry partner, species assumed) above

As to `CC(C)c1noc2c(F)cc3cnc(NC4CCN(S(C)(=O)=O)CC4)nc3c12` [I.6, 6-fluoro-9-isopropyl-N-(1-(methylsulfonyl)piperidin-4-yl)isoxazolo[5,4-h]quinazolin-2-amine], the figures for the 50% inhibitory concentration (IC50) at CDK4/cyclin D3, at CDK2/Cyclin A2 and at CDK6/Cyclin D3 were 5 nM, 1 nM and 12 nM, respectively.

Consider `Cc1cc2cnc(NC3CCN(S(C)(=O)=O)CC3)nc2c2c(C(C)C)noc12` [I.12, 9-isopropyl-6-methyl-N-(1-(methylsulfonyl)piperidin-4-yl)isoxazolo[5,4-h]quinazolin-2-amine], for which the values for the IC50 at CDK4/cyclin D3, on CDK2/Cyclin A2 and on CDK6/Cyclin D3 were 5 nM, 1 nM and 13 nM, respectively.

For `CC(C)n1nnc2ccc3cnc(NC4CCCNC4)nc3c21` (stereo not drawn) [II.34, 1-isopropyl-N-(piperidin-3-yl)-1H-[1,2,3]triazolo[4,5-h]quinazolin-8-amine], the figures for the 50% inhibitory concentration (IC50) on CDK4/cyclin D3, at CDK2/Cyclin A2 and on CDK6/Cyclin D3 were 55 nM, 296 nM and 35 nM, respectively.

Take `CC(C)n1nnc2ccc3cnc(N[C@H]4CC[C@H](Nc5ncccn5)CC4)nc3c21` [II.5, (1R,4R)-N^1-(1-isopropyl-1H-[1,2,3]triazolo[4,5-h]quinazolin-8-yl)-N^4-(pyrimidin-2-yl)cyclohexane-1,4-diamine]: the IC50 (usually the concentration at which inhibition is half-maximal) on CDK4/cyclin D3 was 22 nM; at CDK2/Cyclin A2, 140 nM; on CDK6/Cyclin D3, 34 nM.

`CC(C)n1nnc2c(C(F)F)cc3cnc(NC4CCN(S(=O)(=O)C5CC5)CC4)nc3c21` [II.29, N-(1-(cyclopropylsulfonyl)piperidin-4-yl)-4-(difluoromethyl)-1-isopropyl-1H-[1,2,3]triazolo[4,5-h]quinazolin-8-amine]: the IC50 on CDK4/cyclin D3 came out at 1 nM; at CDK2/Cyclin A2, 0.2 nM; at CDK6/Cyclin D3, 3 nM.

In the case of `CC(C)n1nnc2ccc3cnc(NC4CCN(S(=O)(=O)C5CC5)CC4)nc3c21` [II.16, N-(1-(cyclopropylsulfonyl)piperidin-4-yl)-1-isopropyl-1H-[1,2,3]triazolo[4,5-h]quinazolin-8-amine], the IC50 at CDK4/cyclin D3 was found to be 3 nM; on CDK2/Cyclin A2 it was 0.2 nM; at CDK6/Cyclin D3, 5 nM.

`CC(C)c1noc2c(Cl)cc3cnc(NC4CCN(S(C)(=O)=O)CC4)nc3c12` [I.7, 6-chloro-9-isopropyl-N-(1-(methylsulfonyl)piperidin-4-yl)isoxazolo[5,4-h]quinazolin-2-amine]: the IC50 came to 7 nM on CDK4/cyclin D3, 8 nM at CDK2/Cyclin A2 and 3 nM on CDK6/Cyclin D3.

Regarding `CC(C)n1nnc2ccc3cnc(N[C@H]4CC[C@H](N)CC4)nc3c21` [II.1, (1R,4R)-N1-(1-isopropyl-1H-[1,2,3]triazolo[4,5-h]quinazolin-8-yl)cyclohexane-1,4-diamine], the half-maximal inhibitory concentration (IC50) at CDK4/cyclin D3, at CDK2/Cyclin A2 and on CDK6/Cyclin D3 was over 500 nM each time.

Regarding `CC(C)n1nnc2c1-c1nc(NC3CCN(S(C)(=O)=O)CC3)ncc1CC2` [II.37, 1-isopropyl-N-(1-(methylsulfonyl)piperidin-4-yl)-4,5-dihydro-1H-[1,2,3]triazolo[4,5-h]quinazolin-8-amine], the values for the IC50 on CDK4/cyclin D3, on CDK2/Cyclin A2 and on CDK6/Cyclin D3 were 4 nM, 0.5 nM and 12 nM, respectively.

With `CCS(=O)(=O)N1CCC(Nc2ncc3cc(C(F)F)c4nnn(C(C)C)c4c3n2)CC1` [II.28, 4-(difluoromethyl)-N-(1-(ethylsulfonyl)piperidin-4-yl)-1-isopropyl-1H-[1,2,3]triazolo[4,5-h]quinazolin-8-amine], the figures for the IC50 on CDK4/cyclin D3, on CDK2/Cyclin A2 and at CDK6/Cyclin D3 were 3 nM, 0.2 nM and 7 nM, respectively.

As for `CC(C)n1nnc2ccc3cnc(N[C@H]4CC[C@H](N5CCN(C(=O)c6ccccc6)CC5)CC4)nc3c21` [II.10, (4-((1R,4R)-4-((1-isopropyl-1H-[1,2,3]triazolo[4,5-h]quinazolin-8-yl)amino)cyclohexyl)piperazin-1-yl)(phenyl) ketone], the IC50 on CDK4/cyclin D3 was 22 nM; at CDK2/Cyclin A2, 336 nM; on CDK6/Cyclin D3, 46 nM.

For `CC(C)n1nnc2c(F)cc3cnc(NC4CCN(S(C)(=O)=O)CC4)nc3c21` [II.21, 4-fluoro-1-isopropyl-N-(1-(methylsulfonyl)piperidin-4-yl)-1H-[1,2,3]triazolo[4,5-h]quinazolin-8-amine], the IC50 on CDK4/cyclin D3 was 2 nM; at CDK2/Cyclin A2, 0.2 nM; at CDK6/Cyclin D3, 5 nM.

Turning to `CC(C)c1noc2c(CO)cc3cnc(NC4CCN(S(C)(=O)=O)CC4)nc3c12` [I.10, (9-isopropyl-2-((1-(methylsulfonyl)piperidin-4-yl)amino)isoxazolo[5,4-h]quinazolin-6-yl)methanol], the IC50 on CDK4/cyclin D3 is 72 nM; on CDK2/Cyclin A2, 49 nM; on CDK6/Cyclin D3, 71 nM.

`CC(C)n1nnc2ccc3cnc(N[C@H]4CC[C@H](N5CCN(C6CCCC6)CC5)CC4)nc3c21` [II.7, N-((1R,4R)-4-(4-cyclopentylpiperazin-1-yl)cyclohexyl)-1-isopropyl-1H-[1,2,3]triazolo[4,5-h]quinazolin-8-amine]: the IC50 came to 40 nM at CDK4/cyclin D3, 465 nM at CDK2/Cyclin A2 and 26 nM on CDK6/Cyclin D3.

As for `CC(C)n1nnc2ccc3cnc(NC4CCN(C)CC4)nc3c21` [II.13, 1-isopropyl-N-(1-methylpiperidin-4-yl)-1H-[1,2,3]triazolo [4,5-h]quinazolin-8-amine], the results for the IC50 on CDK4/cyclin D3, on CDK2/Cyclin A2 and at CDK6/Cyclin D3 were 41 nM, 110 nM and 90 nM, respectively.

With `CC(C)n1nnc2ccc3cnc(NC4CCC(=O)NC4)nc3c21` (stereo not drawn) [II.35, 5-((1-isopropyl-1H-[1,2,3]triazolo[4,5-h]quinazolin-8-yl)amino)piperidin-2-one], the IC50 is 50 nM at CDK4/cyclin D3, 10 nM on CDK2/Cyclin A2 and 58 nM on CDK6/Cyclin D3.

Take `CC(C)n1nnc2c(Br)cc3cnc(NC4CCN(S(C)(=O)=O)CC4)nc3c21` [II.24, 4-bromo-1-isopropyl-N-(1-(methylsulfonyl)piperidin-4-yl)-1H-[1,2,3]triazolo[4,5-h]quinazolin-8-amine]: the IC50 was found to be 4 nM on CDK4/cyclin D3, 1 nM on CDK2/Cyclin A2 and 16 nM at CDK6/Cyclin D3.

On to `COCCN[C@H]1CC[C@H](Nc2ncc3ccc4nnn(C(C)C)c4c3n2)CC1` [II.4, (1R,4R)-N^1-(1-isopropyl-1H-[1,2,3]triazolo[4,5-h]quinazolin-8-yl)-N^4-(2-methoxyethyl)cyclohexane-1,4-diamine], for which the 50% inhibitory concentration (IC50) at CDK4/cyclin D3 was determined as 16 nM; at CDK2/Cyclin A2 it was 20 nM; on CDK6/Cyclin D3 it was 22 nM.

Consider `CC(C)n1nnc2ccc3cnc(NC4CCNCC4)nc3c21` [II.12, 1-isopropyl-N-(piperidin-4-yl)-1H-[1,2,3]triazolo[4,5-h] quinazolin-8-amine], for which the results for the IC50 on CDK4/cyclin D3, at CDK2/Cyclin A2 and at CDK6/Cyclin D3 were 51 nM, 151 nM and 89 nM, respectively.

On to `CNS(=O)(=O)N1CCC(Nc2ncc3ccc4nnn(C(C)C)c4c3n2)CC1` [II.20, 4-((1-isopropyl-1H-[1,2,3]triazolo[4,5-h]quinazolin-8-yl)amino)-N-methylpiperidin-1-sulfamide], for which the IC50 came to 4 nM at CDK4/cyclin D3, 0.2 nM on CDK2/Cyclin A2 and 12 nM at CDK6/Cyclin D3.

For `CCS(=O)(=O)N1CCC(Nc2ncc3ccc4nnn(C(C)C)c4c3n2)CC1` [II.15, N-(1-(ethylsulfonyl)piperidin-4-yl)-1-isopropyl-1H-[1,2,3] triazolo[4,5-h]quinazolin-8-amine], the half-inhibitory concentration (IC50) at CDK4/cyclin D3 is 3 nM; at CDK2/Cyclin A2, 0.3 nM; at CDK6/Cyclin D3 it was 4 nM.

On to `CC(C)n1nnc2c(CC(F)(F)F)cc3cnc(NC4CCN(S(C)(=O)=O)CC4)nc3c21` [II.31, 1-isopropyl-N-(1-(methylsulfonyl)piperidin-4-yl)-4-(2,2,2-trifluoro-ethyl)-1H-[1,2,3]triazolo[4,5-h]quinazolin-8-amine], for which the results for the IC50 on CDK4/cyclin D3, at CDK2/Cyclin A2 and on CDK6/Cyclin D3 were 1 nM, 0.2 nM and 2 nM, respectively.

As for `CC(C)n1nnc2c(C(F)F)cc3cnc(NC4CCN(S(=O)(=O)C(F)F)CC4)nc3c21` [II.30, 4-(difluoromethyl)-N-(1-((difluoromethyl)sulfonyl)piperidin-4-yl)-1-isopropyl-1H-[1,2,3]triazolo[4,5-h]quinazolin-8-amine], the IC50 was 3 nM at CDK4/cyclin D3, 0.3 nM at CDK2/Cyclin A2 and 6 nM on CDK6/Cyclin D3.

`CC(C)n1nnc2ccc3cnc(NC4CCN(S(=O)(=O)CC5CC5)CC4)nc3c21` [II.17, N-(1-((cyclopropylmethyl)sulfonyl)piperidin-4-yl)-1-iso-propyl-1H-[1,2,3]triazolo[4,5-h]quinazolin-8-amine]: the values for the IC50 at CDK4/cyclin D3, at CDK2/Cyclin A2 and at CDK6/Cyclin D3 were 8 nM, 1 nM and 15 nM, respectively.

Turning to `C[C@@]1(O)CCC[C@H]1n1nnc2c(C(F)F)cc3cnc(NC4CCN(S(C)(=O)=O)CC4)nc3c21` [II.33], the half-inhibitory concentration (IC50) amounted to 3 nM at CDK4/cyclin D3, 0.3 nM on CDK2/Cyclin A2 and 5 nM on CDK6/Cyclin D3.
